One data set addresses T1, HpMTAN (Helicobacter pylori, UniProt Q9ZMY2).
T1 construct: His6 (N); made in house; host or cells: E. coli BL21 (DE3)
T1 sequence (Q9ZMY2 1-230): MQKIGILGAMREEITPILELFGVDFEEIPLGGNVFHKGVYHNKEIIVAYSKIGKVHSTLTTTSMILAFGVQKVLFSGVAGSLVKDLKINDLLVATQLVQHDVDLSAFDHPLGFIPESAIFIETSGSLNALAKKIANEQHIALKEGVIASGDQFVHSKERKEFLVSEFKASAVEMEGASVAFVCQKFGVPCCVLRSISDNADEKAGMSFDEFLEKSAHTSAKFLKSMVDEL
The data set can be described thus: Kinetics of HpMTAN with substrates, direct assay (absorbance at 274 nm). It is filed as biochemical. The note with it: substrate of purified HpMTAN. As for the experimental part:
(§1) Kinetics of HpMTAN were determined using a direct assay involving absorbance decrease at 274 nm continuously as a consequence of formation of free adenine from 5′-methylthioadenosine. The Ki and Ki* values of BuT-DADMe-ImmA (30) were determined using coupled assays, in which xanthine oxidase was used as the coupling enzyme and absorbance increase was followed at 292 nm as the product adenine is converted to 2,8-dihydroxyadenine. Both assays have been previously described
BuT-DADMe-ImmA (30) was previously characterized as a transition state analogue inhibitor of EcMTAN (FIG. 1C)^8. Here, inhibition assays were performed using BuT-DADMe-ImmA against recombinant HpMTAN with 5′-methylthioadenosine as substrate. Purified HpMTAN uses both 5′-methylthioadenosine and 6-amino-6-deoxyfutalosine as facile substrates. […] The low Kd value supports the proposal that BuT-DADMe-ImmA is a transition state analogue inhibitor for HpMTAN. […] The nitrogen of the hydroxypyrrolidine moiety has a pKa value of 9, and thus mimics the positive charge of a ribocation at the transition state. The methylene bridge extends the distance between the sugar and the purine base leaving group, as this distance is near 3 Å at the transition state. […]

Data set [1] addresses T2, H. pylori MTAN (Helicobacter pylori, UniProt Q9ZMY2).
T2 construct: His6 (N); made in house; host or cells: E. coli BL21 (DE3)
T2 sequence (Q9ZMY2 1-230): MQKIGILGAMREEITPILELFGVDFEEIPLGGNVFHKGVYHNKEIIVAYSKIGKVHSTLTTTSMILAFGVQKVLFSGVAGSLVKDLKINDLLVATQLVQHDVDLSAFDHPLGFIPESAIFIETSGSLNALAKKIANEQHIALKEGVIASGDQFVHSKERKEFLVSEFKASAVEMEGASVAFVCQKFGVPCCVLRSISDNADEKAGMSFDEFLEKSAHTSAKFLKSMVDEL
The data set can be described thus: Ki determination: inhibition of recombinant HpMTAN, xanthine oxidase coupled assay, 5′-methylthioadenosine as substrate. It is filed as biochemical. The method, then: The purification procedure of HpMTAN was described previously^10. Briefly, BL21 (DE3) cells harboring a plasmid encoding HpMTAN with an N-terminal His6-tag were grown to an optical density of 0.7 measured at 595 nm and IPTG was introduced to a final concentration of 0.5 mM. After another 15 h at 22° C., cells were collected by centrifugation. The pellet was suspended and later disrupted by pressure cell and sonication. The soluble portion was applied to a Ni-NTA column and HpMTAN was eluted with an imidazole concentration gradient of 200 to 500 mM. The protein was desalted using a Superdex G15 gel-filtration column then equilibrated and concentrated in 10 mM Hepes, 30 mM KCl, pH 7.6. The purity was confirmed by SDS-PAGE.
as §1
(§2) BuT-DADMe-ImmA (30) was previously characterized as a transition state analogue inhibitor of EcMTAN (FIG. 1C)^8. Here, inhibition assays were performed using BuT-DADMe-ImmA against recombinant HpMTAN with 5′-methylthioadenosine as substrate. Purified HpMTAN uses both 5′-methylthioadenosine and 6-amino-6-deoxyfutalosine as facile substrates. […] The low Kd value supports the proposal that BuT-DADMe-ImmA is a transition state analogue inhibitor for HpMTAN. […] The nitrogen of the hydroxypyrrolidine moiety has a pKa value of 9, and thus mimics the positive charge of a ribocation at the transition state. The methylene bridge extends the distance between the sugar and the purine base leaving group, as this distance is near 3 Å at the transition state. The 9-deazaadenine alters conjugation in the purine ring, causing an elevated pKa and protonation of N7, resembling the N7-protonated adenine leaving group at the transition state.

The test system of data set [2] is H. pylori. The data set can be described thus: H. pylori growth on tryptic soy agar with 5% horse blood (MIC). The data set is classed as cell-based, Helicobacter pylori. The conditions noted are these: for MIC90: Helicobacter pylori. As for the experimental part: (§3) H. pylori were grown for 72 hours under microaerophilic condition (5% O2, 10% CO2 and 85% N2) at 37° C. on tryptic soy agar with 5% horse blood. To determine the MIC values, the test substance was added to the gel solution right before pouring. To compare the zones of inhibition, specific antibiotics were added to the center of disc after spreading H. pylori, and then H. pylori was allowed to grow for 72 hours under microaerophilic condition at 37° C.
The effects of BuT-DADMe-ImmA (30) were tested on H. pylori growing on 5% horse blood agar. At 6 ng/ml, slight growth was detected and at 8 ng/ml, no growth was detected, therefore the MIC90 value for inhibition of H. pylori growth is <8 ng/ml (FIG. 3A).

Data set [3] concerns H. pylori. The data set is described as follows: Zone of inhibition (disc) on H. pylori. The data set is classed as cell-based, Helicobacter pylori. The conditions noted are these: for zones of inhibition, comparison of antibiotics: equivalent amounts (10 ng or 20 ng per disc). The method, then: FIG. 3A-3B: The effects of BuT-DADMe-ImmA (30) on H. pylori growth. A. The effects of increasing the concentration of BuT-DADMe-ImmA (ng/ml) on growth on blood agar. B. The inhibitory effects of BuT-DADMe-ImmA are compared with amoxicillin, metronidazole and tetracyclin in zone of inhibition studies. Drug concentrations were: 0 (top disc), 10 ng (middle disc) or 20 ng (bottom disc). Each specified antibiotic was applied to the disc in the same manner.
as §3
Commonly used antibiotics in H. pylori infections include amoxicillin, metronidazole and tetracycline. The anti-H. pylori effects of BuT-DADMe-ImmA (30) were compared to those antibiotics in common use. […] Thus, BuT-DADMe-ImmA is more efficient at inhibition of H. pylori growth than commonly used antibiotics.

The test system of a further data set is K. pneumoniae. The data set can be described thus: Growth of K. pneumoniae on MacConkey agar. It is filed as cell-based. The conditions noted are these: culture concentrations to 5 μg/ml, 24 hours. The method, then:
(§4) At the desired concentration of the test substance BuT-DADMe-ImmA (30), K pneumoniae, S. flexneri and S. enterica were grown on MacConkey agar at 37° C. for 24 hours, and S. aureus and P. aeruginosa were grown on LB agar at 37° C. for 24 hours.
(§5) In most bacteria, MTANs are expressed and catalyze the hydrolysis of the N-ribosidic bonds of 5′-methylthioadenosine and S-adenosylhomocysteine. The two reactions are involved in bacterial quorum sensing, sulfur recycling via S-adenosylmethionine and polyamine synthesis^16; however, most bacterial MTANs are not essential for bacterial proliferation as judged by planktonic growth conditions. […] The effects BuT-DADMe-ImmA were also tested on the growth for additional clinically common pathogens, S. aureus, K pneumoniae, S. flexneri, S. enterica and P. aeruginosa. […] Because of the inhibitor specificity for this rare menaquinone pathway, treatment of H. pylori infections with BuT-DADMe-ImmA would be unlikely to generate antibiotic resistance in off-target bacterial species.

In the next data set the test system is S. flexneri. The data set is described as follows: Growth of S. flexneri on MacConkey agar. It is filed as cell-based. The conditions noted are these: culture concentrations to 5 μg/ml, 24 hours. As for the experimental part:
as §4, §5

The subject of another data set is S. enterica. The data set can be described thus: Growth of S. enterica on MacConkey agar. The data set is classed as cell-based. The note with it: culture concentrations to 5 μg/ml, 24 hours. The method, then:
as §4, §5

The test system of a further data set is S. aureus. The data set is described as follows: Growth of S. aureus on LB agar. The conditions noted are these: culture concentrations to 5 μg/ml, 24 hours. The data set is classed as cell-based. As for the experimental part: as §4, §5
The next data set deals with P. aeruginosa. The data set can be described thus: Growth of P. aeruginosa on LB agar. The data set is classed as cell-based. The conditions noted are these: culture concentrations to 5 μg/ml, 24 hours. As for the experimental part:
as §4, §5

The target of data set [4] is T2, H. pylori MTAN. The note with it: Table 3, cited from earlier work.
The next data set deals with E. coli. The note with it: reference 6; cited from earlier work.
A further data set has as its system V. cholerae. The note with it: reference 6; cited from earlier work.
The target of data set [5] is T3, MTAN (Escherichia coli, UniProt P0AF12).
T3 construct: host or cells: E. coli cells
The conditions noted are these: reference 6; cited from earlier work.

Data set [6] deals with T4, MTAN (Vibrio cholerae serotype O1, UniProt Q9KPI8).
T4 construct: host or cells: V. cholerae cells
The note with it: reference 6; cited from earlier work.

The conditions of data set [7]: stated without a test; cited from earlier work.
Substrate in data set [8]: CC(O)[C@H]1O[C@@H](n2cnc3c(N)ncnc32)[C@H](S)[C@@H]1O
The data set can be described thus: Kinetics of HpMTAN with substrates, direct assay (absorbance at 274 nm). It is filed as biochemical, Helicobacter pylori. The note with it: other: substrate of purified HpMTAN. The method, then:
as §1, §2

Where two headings read alike, the source gives them in different places.

T3 sequence (P0AF12 whole entry): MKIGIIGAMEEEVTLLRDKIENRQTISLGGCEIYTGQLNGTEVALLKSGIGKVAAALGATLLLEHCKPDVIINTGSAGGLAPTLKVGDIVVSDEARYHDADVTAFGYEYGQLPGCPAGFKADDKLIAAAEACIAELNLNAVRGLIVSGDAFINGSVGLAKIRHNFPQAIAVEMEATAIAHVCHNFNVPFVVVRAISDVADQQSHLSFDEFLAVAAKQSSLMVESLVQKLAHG
T4 sequence (Q9KPI8 whole entry): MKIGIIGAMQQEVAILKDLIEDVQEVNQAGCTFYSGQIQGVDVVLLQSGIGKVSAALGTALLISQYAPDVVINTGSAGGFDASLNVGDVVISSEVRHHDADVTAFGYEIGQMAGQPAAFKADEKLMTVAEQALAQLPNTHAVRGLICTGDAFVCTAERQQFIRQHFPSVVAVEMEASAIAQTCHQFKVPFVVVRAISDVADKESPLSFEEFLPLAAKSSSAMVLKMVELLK

`Nc1ncnc2c1ncn2[C@@H]1O[C@H](CCC(=O)c2cccc(C(=O)O)c2)[C@@H](O)[C@H]1O` [6-amino-6-deoxyfutalosine]: the Km at HpMTAN stood at 0.8 ± 0.3 µM. Further, the kcat at HpMTAN (in 1/s) worked out at 4.3±0.9.

On to `CCCCSC[C@H]1CN(Cc2c[nH]c3c(N)ncnc23)C[C@@H]1O` [Compound 30, (3R,4S)-4-(1-butylthiomethyl)-1-[(9-deaza-adenin-9-yl)-methyl]-3-hydroxypyrrolidine], for which the Ki at H. pylori MTAN [1] (5′-methylthioadenosine as substrate, read-out: initial inhibition constant (Ki)) was 0.8 nM; on H. pylori MTAN [4] (value from Reference 10, read-out: Inhibition of H. pylori MTAN Ki*) it was 0.036 ± 0.002 nM; at H. pylori MTAN [4] (value marked (Reference 10), read-out: Inhibition of H. pylori MTAN Ki), 0.79 ± 0.04 nM. The Km/Kd ratio on H. pylori MTAN [1] (Km 0.8 μM for 6-amino-6-deoxyfutalosine as substrate) is 22,200. Further, the Kd at H. pylori MTAN [1] (following slow-onset of inhibition, read-out: equilibrium dissociation constant (Ki*=Kd)) amounted to 0.036 nM. Further, the MIC90 is less than 8 ng/mL in the data set on H. pylori [2] (5% horse blood agar, read-out: MIC90 value for inhibition of H. pylori growth); 6 to 8 ng/mL in the data set on H. pylori [2] (Table 3, agar plate, 72 hours, microaerophilic, read-out: Inhibition of H. pylori growth MIC90); 0.023 µM in the data set on H. pylori [2] (corresponds to MIC90 of 8 ng/ml, read-out: MIC90 as chemical concentration). Besides, the H. pylori growth result in the data set with H. pylori [2] (at 6 ng/ml, 5% horse blood agar) is listed as “slight growth”; with H. pylori [2] (at 8 ng/ml, 5% horse blood agar), “no growth”. Besides, the zones of clearance entry was “Small zones of clearance” in the data set on H. pylori [3] (10 ng on disc) and “large zones” in the data set on H. pylori [3] (20 ng on disc). Further, in the data set with H. pylori [3], the “zones of inhibition, comparison of antibiotics” value (shortened to “zones of inhibition”) was “greater than those for any of the other antibiotics”. Further, the “growth inhibition of K. pneumoniae” value in the data set with K. pneumoniae is “no growth inhibition”. The “growth inhibition of S. flexneri” value in the data set with S. flexneri is recorded as “no growth inhibition”. Further, in the data set on S. enterica, the “growth inhibition of S. enterica” value is given as “no growth inhibition”. Besides, the “growth inhibition of S. aureus” value with S. aureus is listed as “no growth inhibition”. Moreover, the “growth inhibition of P. aeruginosa” value in the data set with P. aeruginosa is reported as “no growth inhibition”. Further, in the data set on E. coli, the “effect on growth of E. coli” value is “did not affect the growth”. The “effect on growth of V. cholerae” value with V. cholerae was “did not affect the growth”. Further, at MTAN [5], the “MTAN activity in E. coli” value is “totally abolished”. At MTAN [6], the “MTAN activity in V. cholerae” value is on record as “totally abolished”. In addition, in data set [7], the “pKa value of the nitrogen of the hydroxypyrrolidine moiety” value is 9.

For `CC1(C)S[C@@H]2[C@H](NC(=O)[C@H](N)c3ccc(O)cc3)C(=O)N2[C@H]1C(=O)O` [amoxicillin, reference compound], the “zones of inhibition” value with H. pylori [3] is listed as “smaller zone of growth inhibition than BuT-DADMe-ImmA”.

Take `Cc1ncc([N+](=O)[O-])n1CCO` [metronidazole, reference compound]: the “zones of inhibition” value in the data set on H. pylori [3] is “no growth inhibition”.

B1: HpMTAN (Helicobacter pylori J99) (protein)
chain: MQKIGILGAMREEITPILELFGVDFEEIPLGGNVFHKGVYHNKEIIVAYSKIGKVHSTLTTTSMILAFGVQKVLFSGVAGSLVKDLKINDLLVATQLVQHDVDLSAFDHPLGFIPESAIFIETSGSLNALAKKIANEQHIALKEGVIASGDQFVHSKERKEFLVSEFKASAVEMEGASVAFVCQKFGVPCCVLRSISDNADEKAGMSFDEFLEKSAHTSAKFLKSMVDEL
notes: His6 (N); made in house; host or cells: E. coli BL21 (DE3)
On to B1, for which, in [8], the Km was found to be 0.6 ± 0.3 µM, the kcat stood at 12.1 s⁻¹ and the kcat/Km worked out at 2e+07 M⁻¹ s⁻¹.
